From article PMC11790914, “Chemogenomics for steroid hormone receptors (NR3)” (Communications Chemistry, 2025)
Values joined by “and” are separate entries in the source; they are usually repeats but may differ in a detail not shown here. Equal entries are not always repeated. “Also recorded” adds a separate entry of the source. Values belong to the molecule of their own block, whether it stands above or below them.

Key:
[1] = tested on: HEK293T cells; assay: Cytotoxicity: apoptosis induction (caspase-3/7 DEVD fluorogenic DNA dye); settings: for Apoptosis induction [AI]: single replicates
[2] = target: T1, ABL1 (Homo sapiens, UniProt P00519); assay: Liability panel screening by DSF: ABL1; format: binding; settings: DSF, 20 µM, n=2; for ΔTm at 20 µM: read-out: Mean ΔTM ABL1
T1 construct: made in house
How it was run: (§1)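 Recombinant protein at 2 µM in 10 mM HEPES pH 7.5 with 500 mM NaCl was mixed with SYPRO Orange (1:1000) and heated at 3 °C/min up to 85 °C. Tm was taken as the Boltzmann-fit inflection point. Shifts are ∆Tm in K from technical duplicates.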

[3] = tested on: HEK293T cells; assay: Cytotoxicity: growth-rate (change in confluence over 24 h); settings: normalized to 0.1% DMSO control, single replicates (n=1...)
[4] = target: T2, CSNK1D (Homo sapiens, UniProt P48730); assay: Liability panel screening by DSF: CSNK1D; format: binding; settings: DSF, 20 µM, n=2; for ΔTm at 20 µM: read-out: Mean ΔTM CSNK1D
T2 construct: made in house
How it was run: as §1

[5] = target: T3, TRIM24 (Homo sapiens, UniProt O15164); assay: Liability panel screening by DSF: TRIM24; format: binding; settings: DSF, 20 µM, n=2; for ΔTm at 20 µM: read-out: Mean ΔTM TRIM24
T3 construct: This panel comprised ten highly ligandable kinases and bromodomains; made in house
T3 sequence (O15164 899-1004 limits assumed): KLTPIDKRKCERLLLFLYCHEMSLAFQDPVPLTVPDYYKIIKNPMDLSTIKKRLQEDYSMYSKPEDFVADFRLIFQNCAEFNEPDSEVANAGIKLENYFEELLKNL
How it was run: as §1

[6] = target: T4, CDK2 (Homo sapiens, UniProt P24941); assay: Liability panel screening by DSF: CDK2; format: binding; settings: DSF, 20 µM, n=2; for ΔTm at 20 µM: read-out: Mean ΔTM CDK2
T4 construct: made in house
How it was run: as §1

[7] = target: T5, AURKA (Homo sapiens, UniProt O14965); assay: Liability panel screening by DSF: AURKA; format: binding; settings: DSF, 20 µM, n=2; for ΔTm at 20 µM: read-out: Mean ΔTM AURKA
T5 construct: made in house
T5 sequence (O14965 1-403): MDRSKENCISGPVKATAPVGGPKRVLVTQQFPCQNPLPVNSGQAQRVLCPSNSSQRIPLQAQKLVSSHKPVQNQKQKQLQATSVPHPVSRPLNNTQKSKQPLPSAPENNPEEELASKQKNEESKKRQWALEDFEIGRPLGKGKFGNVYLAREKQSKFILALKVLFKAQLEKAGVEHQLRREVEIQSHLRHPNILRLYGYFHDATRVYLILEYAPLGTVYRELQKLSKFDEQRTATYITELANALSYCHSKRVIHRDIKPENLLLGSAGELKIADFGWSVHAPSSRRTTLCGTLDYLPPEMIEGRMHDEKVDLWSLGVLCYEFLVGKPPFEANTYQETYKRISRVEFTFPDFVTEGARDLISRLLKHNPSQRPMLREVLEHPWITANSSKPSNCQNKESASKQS
How it was run: as §1

[8] = target: T6, BRPF1 (Homo sapiens, UniProt P55201); assay: Liability panel screening by DSF: BRPF1; format: binding; settings: DSF, 20 µM, n=2; for ΔTm at 20 µM: read-out: Mean ΔTM BRPF1
T6 construct: This panel comprised ten highly ligandable kinases and bromodomains; made in house
T6 sequence (P55201 628-732 limits assumed): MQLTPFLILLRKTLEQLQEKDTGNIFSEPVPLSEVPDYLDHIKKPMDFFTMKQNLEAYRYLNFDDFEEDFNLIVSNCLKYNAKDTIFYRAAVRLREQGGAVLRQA
How it was run: as §1

[9] = target: T7, GSK3B (Homo sapiens, UniProt P49841); assay: Liability panel screening by DSF: GSK3B; format: binding; settings: DSF, 20 µM, n=2; for ΔTm at 20 µM: read-out: Mean ΔTM GSK3B
T7 construct: made in house

[10] = target: T8, MAPK1 (Homo sapiens, UniProt P28482); assay: Liability panel screening by DSF: MAPK1; format: binding; settings: DSF, 20 µM, n=2; for ΔTm at 20 µM: read-out: Mean ΔTM MAPK1
T8 construct: made in house
How it was run: as §1

[11] = tested on: NF-κB activity in HEK293 NF-κB reporter cells; assay: NF-kB activity assay (GFP reporter, ionomycin/PMA); format: cell-based; settings: n=3
How it was run: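 HEK293 NF-κB GFP reporter cells given compound in 0.1% DMSO for 4 h, then stimulated with ionomycin 100 ng/mL plus PMA 10 ng/mL. Imaged every 90 min over 24 h; GFP-positive cell count normalized to confluence, three independent biological replicates.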

[12] = tested on: ATF6 activity in Hela ATF6 reporter cells; assay: Endoplasmic reticulum stress assay (ATF6 Renilla luciferase reporter, tunicamycin); format: cell-based
How it was run: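 HeLa ATF6 Renilla reporter cells were pretreated 4 h with compounds in 0.1% DMSO, then stimulated with tunicamycin (100 ng/mL) for 18 h. Renilla luminescence (DualGlo) was normalized to 0.1% DMSO control; five independent experiments.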

T1 sequence (P00519 whole entry, species assumed): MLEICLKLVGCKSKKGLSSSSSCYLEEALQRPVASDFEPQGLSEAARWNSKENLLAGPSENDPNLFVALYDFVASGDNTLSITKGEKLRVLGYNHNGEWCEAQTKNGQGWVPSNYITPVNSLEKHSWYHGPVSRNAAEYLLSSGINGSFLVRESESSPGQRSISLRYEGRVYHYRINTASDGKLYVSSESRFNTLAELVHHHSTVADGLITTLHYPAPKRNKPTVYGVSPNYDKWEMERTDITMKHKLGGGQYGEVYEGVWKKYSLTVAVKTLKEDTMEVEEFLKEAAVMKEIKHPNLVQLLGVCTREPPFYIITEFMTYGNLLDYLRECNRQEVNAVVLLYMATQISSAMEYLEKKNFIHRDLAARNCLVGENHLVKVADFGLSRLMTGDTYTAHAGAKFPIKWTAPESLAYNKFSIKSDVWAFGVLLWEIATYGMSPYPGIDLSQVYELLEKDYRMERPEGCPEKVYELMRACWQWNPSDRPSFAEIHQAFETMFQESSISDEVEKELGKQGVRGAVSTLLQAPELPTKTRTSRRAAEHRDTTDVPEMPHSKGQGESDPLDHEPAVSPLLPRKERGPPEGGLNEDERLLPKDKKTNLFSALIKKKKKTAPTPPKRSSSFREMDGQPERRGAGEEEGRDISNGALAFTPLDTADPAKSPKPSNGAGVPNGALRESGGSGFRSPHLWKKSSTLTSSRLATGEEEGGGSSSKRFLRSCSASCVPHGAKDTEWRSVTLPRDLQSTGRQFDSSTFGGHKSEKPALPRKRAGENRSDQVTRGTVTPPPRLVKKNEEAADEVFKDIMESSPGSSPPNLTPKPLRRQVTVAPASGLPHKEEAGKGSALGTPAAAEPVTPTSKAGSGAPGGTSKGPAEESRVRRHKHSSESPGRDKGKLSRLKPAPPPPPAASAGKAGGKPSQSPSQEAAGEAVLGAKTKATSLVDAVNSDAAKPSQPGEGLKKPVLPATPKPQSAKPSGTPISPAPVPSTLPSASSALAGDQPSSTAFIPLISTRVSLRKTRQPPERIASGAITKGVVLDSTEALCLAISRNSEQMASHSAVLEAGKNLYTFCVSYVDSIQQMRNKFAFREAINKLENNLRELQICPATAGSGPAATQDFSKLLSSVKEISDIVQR
T2 sequence (P48730 whole entry, species assumed): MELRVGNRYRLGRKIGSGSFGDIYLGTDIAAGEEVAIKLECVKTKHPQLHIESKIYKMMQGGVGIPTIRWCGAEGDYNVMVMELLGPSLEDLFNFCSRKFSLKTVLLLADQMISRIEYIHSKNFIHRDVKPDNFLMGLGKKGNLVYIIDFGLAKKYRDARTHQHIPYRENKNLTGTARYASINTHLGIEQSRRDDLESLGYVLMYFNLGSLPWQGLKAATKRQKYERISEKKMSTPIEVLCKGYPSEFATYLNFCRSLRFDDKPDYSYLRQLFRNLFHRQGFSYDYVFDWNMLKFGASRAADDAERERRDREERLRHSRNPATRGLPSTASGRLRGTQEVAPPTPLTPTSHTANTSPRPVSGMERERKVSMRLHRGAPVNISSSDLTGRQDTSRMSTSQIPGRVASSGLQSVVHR
T8 sequence (P28482 whole entry, species assumed): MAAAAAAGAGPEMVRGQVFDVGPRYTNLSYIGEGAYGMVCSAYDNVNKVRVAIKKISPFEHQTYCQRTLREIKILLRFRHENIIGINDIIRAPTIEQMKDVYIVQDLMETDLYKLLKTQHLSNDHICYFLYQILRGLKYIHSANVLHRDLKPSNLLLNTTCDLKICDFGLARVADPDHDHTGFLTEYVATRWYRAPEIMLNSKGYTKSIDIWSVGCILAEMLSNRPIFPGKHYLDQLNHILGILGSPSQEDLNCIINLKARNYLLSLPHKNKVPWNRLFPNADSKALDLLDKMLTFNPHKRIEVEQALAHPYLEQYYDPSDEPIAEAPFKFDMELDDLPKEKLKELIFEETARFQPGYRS
T7 sequence (P49841 whole entry, species assumed): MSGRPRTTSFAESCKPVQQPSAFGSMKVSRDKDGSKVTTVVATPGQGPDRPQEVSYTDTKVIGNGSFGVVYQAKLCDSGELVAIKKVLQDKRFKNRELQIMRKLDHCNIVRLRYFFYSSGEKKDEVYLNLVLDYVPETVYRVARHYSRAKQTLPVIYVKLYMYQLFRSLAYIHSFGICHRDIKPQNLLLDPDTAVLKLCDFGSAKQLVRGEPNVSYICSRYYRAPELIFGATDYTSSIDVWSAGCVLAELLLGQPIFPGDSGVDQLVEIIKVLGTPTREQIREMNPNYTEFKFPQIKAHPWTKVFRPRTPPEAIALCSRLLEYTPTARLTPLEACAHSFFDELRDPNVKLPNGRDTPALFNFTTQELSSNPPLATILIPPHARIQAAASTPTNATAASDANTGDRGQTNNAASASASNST

Mean ΔTM ABL1 [2]: 1.61 K | Mean ΔTM CSNK1D [4]: -0.77 K | Mean ΔTM TRIM24 [5]: 2.59 K | Mean ΔTM CDK2 [6]: 1.69 K | Mean ΔTM AURKA [7]: 1.95 K | Mean ΔTM BRPF1 [8]: 2.98 K | Mean ΔTM GSK3B [9]: -0.89 K | Mean ΔTM MAPK1 [10]: 0.55 K
SMILES: COc1ccc(-c2coc3cc(O)cc(O)c3c2=O)cc1 [Biochanin A]
Apoptosis induction [AI] ([1]; 10 µM, DMSO 0.1% = 1.00): 0.76 and 0.84 | Growth rate [GR] ([3]; 10 µM): 0.50 and 0.90 and 0.87 and 0.72 and 0.82 and 0.61

ΔTm at 20 µM [2]: 0.48 °C | ΔTm at 20 µM [4]: -0.0262 °C | ΔTm at 20 µM [5]: -0.81 °C | ΔTm at 20 µM [6]: 0.00668 °C | ΔTm at 20 µM [7]: -0.16 °C | ΔTm at 20 µM [8]: -1.04 °C | ΔTm at 20 µM [9]: -0.4 °C | ΔTm at 20 µM [10]: -0.27 °C
SMILES: CCCC1O[C@@H]2C[C@H]3[C@@H]4CCC5=CC(=O)C=C[C@]5(C)[C@H]4[C@@H](O)C[C@]3(C)[C@]2(C(=O)CO)O1 (some centres unmarked) [Budesonide]
Apoptosis induction [AI] ([1]; 0.3 µM, DMSO 0.1% = 1.00): 1.00 and 1.74 | Apoptosis induction [AI] ([1]; 3 µM, DMSO 0.1% = 1.00): 1.77 and 1.74 | apoptosis induction ([1]; HEK293T, 24 h, budesonide (3 µM), others at tested concentration): slight apoptosis induction | Growth rate [GR] ([3]; 0.3 µM): 0.59 and 0.92 (3×) and 1.24 and 0.68 | Growth rate [GR] ([3]; 3 µM): 0.90 and 1.09 and 1.10 and 0.85 and 0.69 and 0.78

SMILES: CC/C(=C(/CC)c1ccc(O)cc1)c1ccc(O)cc1 [Diethylstilbestrol]
Apoptosis induction [AI] ([1]; 0.3 µM, HEK293T, 24 h, apoptotic cell count normalized to 0.1% DMSO): 0.86 and 1.37 (2×) and 0.83 and 1.54 and 0.77 | Apoptosis induction [AI] ([1]; 3 µM, HEK293T, 24 h, apoptotic cell count normalized to 0.1% DMSO): 0.65 and 0.97 and 0.69 and 0.85 and 1.67 and 1.65 | Mean NFκB response ([11]; 0.3 µM, 1,5 h): 2313.08 GFP+-cells/confluence ∙ 1000 | Mean NFκB response ([11]; 0.3 µM, 4,5 h): 2949.70 GFP+-cells/confluence ∙ 1000 | Mean NFκB response ([11]; 0.3 µM, 7,5 h): 7538.46 GFP+-cells/confluence ∙ 1000 | Mean NFκB response ([11]; 0.3 µM, 10,5 h): 18701.55 GFP+-cells/confluence ∙ 1000 | Mean NFκB response ([11]; 0.3 µM, 13,5 h): 27206.00 GFP+-cells/confluence ∙ 1000 | Mean NFκB response ([11]; 0.3 µM, 16,6 h): 33288.00 GFP+-cells/confluence ∙ 1000 | Mean NFκB response ([11]; 0.3 µM, 19,5 h): 37133.33 GFP+-cells/confluence ∙ 1000 | Mean NFκB response ([11]; 0.3 µM, 22,5 h): 40576.67 GFP+-cells/confluence ∙ 1000 | Mean NFκB response ([11]; 0.3 µM, 3 h): 2350.33 GFP+-cells/confluence ∙ 1000 | Mean NFκB response ([11]; 0.3 µM, 6 h): 4223.97 GFP+-cells/confluence ∙ 1000 | Mean NFκB response ([11]; 0.3 µM, 9 h): 13522.53 GFP+-cells/confluence ∙ 1000 | Mean NFκB response ([11]; 0.3 µM, 12 h): 23340.33 GFP+-cells/confluence ∙ 1000 | Mean NFκB response ([11]; 0.3 µM, 15 h): 30431.00 GFP+-cells/confluence ∙ 1000 | Mean NFκB response ([11]; 0.3 µM, 18 h): 35400.00 GFP+-cells/confluence ∙ 1000 | Mean NFκB response ([11]; 0.3 µM, 21 h): 39313.33 GFP+-cells/confluence ∙ 1000 | Mean NFκB response ([11]; 0.3 µM, 24 h): 41536.67 GFP+-cells/confluence ∙ 1000 | Mean NFκB response ([11]; 3 µM, 1,5 h): 2624.20 GFP+-cells/confluence ∙ 1000 | Mean NFκB response ([11]; 3 µM, 4,5 h): 2942.05 GFP+-cells/confluence ∙ 1000 | Mean NFκB response ([11]; 3 µM, 7,5 h): 5380.00 GFP+-cells/confluence ∙ 1000 | Mean NFκB response ([11]; 3 µM, 10,5 h): 14690.00 GFP+-cells/confluence ∙ 1000 | Mean NFκB response ([11]; 3 µM, 13,5 h): 22563.33 GFP+-cells/confluence ∙ 1000 | Mean NFκB response ([11]; 3 µM, 16,6 h): 28276.67 GFP+-cells/confluence ∙ 1000 | Mean NFκB response ([11]; 3 µM, 19,5 h): 33253.33 GFP+-cells/confluence ∙ 1000 | Mean NFκB response ([11]; 3 µM, 22,5 h): 36776.67 GFP+-cells/confluence ∙ 1000 | Mean NFκB response ([11]; 3 µM, 3 h): 2684.18 GFP+-cells/confluence ∙ 1000 | Mean NFκB response ([11]; 3 µM, 6 h): 3410.00 GFP+-cells/confluence ∙ 1000 | Mean NFκB response ([11]; 3 µM, 9 h): 9373.33 GFP+-cells/confluence ∙ 1000 | Mean NFκB response ([11]; 3 µM, 12 h): 19050.00 GFP+-cells/confluence ∙ 1000 | Mean NFκB response ([11]; 3 µM, 15 h): 25776.67 GFP+-cells/confluence ∙ 1000 | Mean NFκB response ([11]; 3 µM, 18 h): 30966.67 GFP+-cells/confluence ∙ 1000 | Mean NFκB response ([11]; 3 µM, 21 h): 34670.00 GFP+-cells/confluence ∙ 1000 | Mean NFκB response ([11]; 3 µM, 24 h): 38090.00 GFP+-cells/confluence ∙ 1000 | ΔTm at 20 µM [2]: -0.96 °C | ATF6 activity (tunicamycin-induced endoplasmic reticulum stress) ([12]; Hela ATF6 reporter cells, tunicamycin 100 ng/mL, 18 h, compounds at recommended concentrations, n = 5): lacked this effect; also recorded: failed to reduce ATF6 activity | activity at 0.3 µM ([12]; Homo sapiens, HeLa, 0.3 µM, single replicates n=1 to n=5, read-out: ER stress [rel. ATF6 activity]): 98% | activity at 3 µM ([12]; Homo sapiens, HeLa, 3 µM, single replicates n=1 to n=5, read-out: ER stress [rel. ATF6 activity]): 98% and 101% | Growth rate [GR] ([3]; 0.3 µM): 0.65 and 4.06 and 0.84 and 0.92 and 1.28 and 1.00 and 0.79 and 1.42 and 0.91 and 9.54 | Growth rate [GR] ([3]; 3 µM): reduced the growth-rate and -0.21 and 0.65 and -0.29 and 0.04 and 0.36 and 0.21 and 0.28 and 1.17 and 0.46 and -0.41 | ΔTm at 20 µM [4]: -0.81 °C | ΔTm at 20 µM [5]: 1.49 °C | ΔTm at 20 µM [6]: -5.57 °C | ΔTm at 20 µM [7]: -1.78 °C | ΔTm at 20 µM [8]: -8.49 °C | ΔTm at 20 µM [9]: -3.54 °C | ΔTm at 20 µM [10]: -12.2 °C

SMILES: C/C=C1\C(=O)C[C@H]2[C@@H]3CCC4=CC(=O)CC[C@]4(C)[C@H]3CC[C@]12C [Z-Guggulsterone]
Apoptosis induction [AI] ([1]; 3 µM, DMSO 0.1% = 1.00): 0.63 and 1.35 | Mean ΔTM ABL1 [2]: 0.07 K | Growth rate [GR] ([3]; 3 µM): 0.73 and 0.88 and 1.06 and 0.96 and 0.82 and 1.15 | Mean ΔTM CSNK1D [4]: 0.63 K | Mean ΔTM TRIM24 [5]: -2.32 K | Mean ΔTM CDK2 [6]: -0.30 K | Mean ΔTM AURKA [7]: -1.78 K | Mean ΔTM BRPF1 [8]: -1.36 K | Mean ΔTM GSK3B [9]: -1.05 K | Mean ΔTM MAPK1 [10]: 0.47 K
